The text below walks through data of patent US12492223B2, “Peptide compositions capable of binding lanthionine synthetase C-like protein (LanCl) and uses thereof” (priority 2021, dated 2025).

In assay [1] the target is recombinant LanCL1 (rLanCL1) (Homo sapiens, UniProt O43813). The experiment in a line: biochemical. Type of assay: binding. The procedure:
Dry pellets of LANCL1 previously photolabelled with photoprobes in the presence of different peptides or PBS/DMSO vehicle were resuspended in 30 μL SDS loading buffer (Bio Rad's XT Sample Buffer containing 2.5% v/v 2-mercaptoethanol) and heated (60° C., 30 min). Proteins were resolved using SDS-PAGE (4-15% Criterion™ TGX Stain-Free™ Protein Gel, Bio Rad) and analyzed by in-gel fluorescence scanning using a ChemiDoc™ MP Imaging System (Bio Rad) with a green LED light as an excitation source and a BP600/20 nm emission filter. After in-gel fluorescence scanning, gels were stained with Coomassie blue to ensure the same amount of protein sample was loaded in each lane and imaged with the ChemiDoc™ MP Imaging System. Photoincorporation of each photoprobe in LANCL1 was quantitatively assessed by measuring the fluorescent intensity of the corresponding gel band using Image lab software (Bio Rad) and normalizing this value against the intensity value of LANCL1 gel band stained with Coomassie blue to control for loading differences.
(SEQ ID NO:22) from recombinant LanCL1 (rLanCL1).

In the next assay the test system is Chung rats. Kind of assay: In vivo model of neuropathic pain (Chung model, Example 4). More on the design: species or system rat. The note with it: oral, subcutaneous and/or intramuscular administration. The text has this: This study was undertaken to assess the analgesic effect of the peptides described herein on neuropathic pain in vivo using a nerve constriction model in Chung rats. Briefly, adult male Sprague-Dawley rats, 8-9 weeks old, weighing 220-250 g at the time of surgery, were purchased from Charles River UK Ltd.
The animals were housed in groups of 4 in an air-conditioned room on a 12-hour light/dark cycle. Food and water were available ad libitum. They were allowed to acclimatise to the experimental environment for three days by leaving them on a raised metal mesh for at least 40 min. The baseline paw withdrawal threshold (PWT) was examined using a series of graduated von Frey hairs for 3 consecutive days before surgery and re-assessed on the 6th to 8th day after surgery and on the 12th to 14th day after surgery before drug dosing.
Each rat was anaesthetized with 5% isoflurane mixed with oxygen (2 L per min) followed by an intramuscular (i.m.) injection of ketamine 90 mg/kg plus xylazine 10 mg/kg. The back was shaved and sterilized with povidone-iodine. The animal was placed in a prone position and a para-medial incision was made on the skin covering the L4-6 level. The L5 spinal nerve was carefully isolated and tightly ligated with 6/0 silk suture. The wound was then closed in layers after a complete hemostasis. A single dose of antibiotics (Amoxipen, 15 mg/rat, i.p.) was routinely given for prevention of infection after surgery. The animals were placed in a temperature-controlled recovery chamber until fully awake before being returned to their home cages.
The vehicle (1% DMSO in PBS) or peptide was administrated intramuscularly (i.m.) into the leg of the side contralateral to the site of injury. Dosing was carried out by a second experimenter. […]
Each group had 8 animals. […] The lowest amount of force required to induce reliable responses (positive in 3 out of 5 trials) was recorded as the value of PWT.
The drug test was carried out on the 12th to 14th day after surgery. PWT were assessed before, 1, 2 and 4 hours following drug or vehicle administration. […]

A further assay concerns A549 cells. The experiment in a line: A549 proliferation + stress assay (restoration of viability of Taxol-treated cells, CellTiter-Glo). Format: cell-based, human. More on the design: key to Estimated Activity in A549 proliferation + stress assay: Inactive: no activity up to 100 μM; WEAK: some or variable restoration of cell viability at 50-100 μM; MODERATE: moderate dose-dependent restoration of cell viability at >25 μM; STRONG: clear dose-dependent restoration of cell viability from 1-5 μM upwards. The conditions noted are these: for Estimated Activity in A549 proliferation + stress assay: 350 μM Taxol, 16 hours, peptide 1-100 μM; for restoration of A549 viability: Taxol-treated A549 cells. The procedure: An assay was developed that involves stressing cells with a dose of the chemotherapeutic agent, Taxol, that causes a 50% inhibition of cell viability when compared to untreated cells. Peptides were then added to the cell cultures at increasing concentrations to assess their ability to restore the viability of the Taxol-treated cells.
Briefly, A549 cells were cultured in opaque-walled multiwell plates with 50000 A549 cells/well in culture medium (DMEM medium ref 11960-044 Thermoscientific, +10% FBS ref 10270-106 Gibco, Thermoscientific, +1% Na pyruvate ref S8636-100 ML, Sigma, +1%, Glutamax ref35050061, Thermoscientific, +1% Penicillin-Streptomycin, ref 11074440001, Sigma) 100 μl per well for 96-well plates. Control wells containing medium without cells were used to obtain a value for background luminescence. Cells were incubated at 37° C. in 5% CO2 overnight.
100 μL of medium+DMSO+peptides or medium+Taxol+peptides (at the different concentrations) were added to each well and incubated for 16 hours at 37° C. 5% CO2.
Cell morphology, viability and confluency were assessed by phase contrast microscopy. The CellTiter-Glo® Luminescent Cell Viability Assay (G7571, Promega—a homogeneous method to determine the number of viable cells in culture based on quantitation of the ATP present) was then used to quantify the number of metabolically active cells, according to the manufacturer's instructions. 100 μl volume of CellTiter-Glo® Reagent was added to the 100 μL volume of cell culture medium present in each well, Contents were mixed for 2 minutes on an orbital shaker to induce cell lysis and after incubating the plates at room temperature for 10 minutes to stabilize luminescent signal luminescence was recorded with an integration time of 0.5 seconds using a CLARIOstar multi well luminometer (BMG Labtech)

The subject of another assay is HKx31 (H3N2). Type of assay: in vivo, mice. The note with it: for IL-6 levels in the BAL fluid / viral titres: 10 mg/kg single dose. More on the design: key to PMN activity score / Viral titre activity score / BAL IL-6 activity score: 0: inactive; 1: less active than the peptide of SEQ ID NO:38; 2: comparable or more active than the peptide of SEQ ID NO:38.

Read-outs that look alike come from different tables or passages of the source. Positions of bridges follow the written chain, without caps; N, C: chain ends. Residues, ends and D or L forms follow the SMILES beside them. No end group written: not given here. Some results are limits rather than exact numbers.

As a reminder, the EC50 is the concentration at which the effect is half-maximal.

Sequence of recombinant LanCL1 (rLanCL1) (O43813 whole entry, species assumed): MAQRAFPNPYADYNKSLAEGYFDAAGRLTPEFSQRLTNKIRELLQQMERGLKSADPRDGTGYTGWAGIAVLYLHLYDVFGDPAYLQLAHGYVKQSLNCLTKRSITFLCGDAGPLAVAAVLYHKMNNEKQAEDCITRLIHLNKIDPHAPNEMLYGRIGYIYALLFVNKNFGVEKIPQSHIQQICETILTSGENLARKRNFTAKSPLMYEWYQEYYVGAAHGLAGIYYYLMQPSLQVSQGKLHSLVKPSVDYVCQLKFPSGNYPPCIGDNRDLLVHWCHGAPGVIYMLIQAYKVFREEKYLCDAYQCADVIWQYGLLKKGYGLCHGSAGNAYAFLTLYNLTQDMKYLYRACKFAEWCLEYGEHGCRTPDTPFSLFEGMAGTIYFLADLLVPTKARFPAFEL

For the compound `CC(C)[C@@H]1NC(=O)[C@H](CO)NC(=O)[C@H](CCCNC(=N)N)NC(=O)[C@@H](N)CSSC[C@@H](C(=O)NCC(=O)O)NC(=O)[C@H](CO)NC(=O)CNC(=O)[C@H](CCC(=O)O)NC1=O` [compound 3] (H-CRSVEGSCG-OH; disulfide 1-8; N-terminus and C-terminus assumed), the EC50 in assay [1] was around 150 µM. The “neuropathic pain in the Chung model” value with Chung rats is reported as “reduced neuropathic pain”.
Turning to 9 (RSVEGS) [compound 9], in the assay on A549 cells, the “Estimated Activity in A549 proliferation + stress assay” value (“Estimated Activity” for short) was “STRONG (clear dose-dependent restoration of cell viability from 1-5 μM upwards)” and the “restoration of A549 viability” value is reported as “restored the Taxol-induced loss of cell viability”. Also, the “IL-6 levels in the BAL fluid” value with HKx31 (H3N2) is “as effective”. The viral titres result with HKx31 (H3N2) (day 3) is “effective”. In addition, in the assay with HKx31 (H3N2) (mouse, in vivo, 10 mg/kg), the “BAL IL-6 activity score” value is 2, the PMN activity score was determined as 2 and the “Viral titre activity score” value is reported as 2. Besides, the “reducing the PMN infiltrate in BAL fluid, compared with the peptide of SEQ ID NO:38” value (“reducing the PMN infiltrate … of SEQ ID NO:38” for short) in the assay with HKx31 (H3N2) (single 10 mg/kg dose) was “as effective”.
Consider 59 (RALNS) [compound 59], for which the “Estimated Activity” value with A549 cells is listed as “WEAK-MODERATE”. Besides, in the assay with HKx31 (H3N2) (mouse, in vivo, 10 mg/kg), the “BAL IL-6 activity score” value is recorded as 2, the PMN activity score is listed as 2 and the “Viral titre activity score” value is recorded as 2.
Regarding `CC[C@H](C)[C@@H]1NC(=O)[C@H](CCCNC(=N)N)NC(=O)[C@@H](N)CSSC[C@@H](C(=O)O)NC(=O)[C@H](CC(N)=O)NC(=O)[C@H](CC(N)=O)NC(=O)[C@H](CC(N)=O)NC(=O)[C@H](Cc2c[nH]cn2)NC(=O)[C@H]([C@@H](C)CC)NC1=O` [compound 24] (H-CRIIHNNNC-OH; disulfide 1-9), the EC50 in assay [1] was in the range of 100 to 200 µM.
Turning to “2 (CRSVEGSCGF; disulfide 1-8) [compound 2]”, the PMN activity score in the assay with HKx31 (H3N2) (mouse, in vivo, 10 mg/kg) is recorded as 2. Moreover, the “reducing the PMN infiltrate … of SEQ ID NO:38” value in the assay on HKx31 (H3N2) (single 10 mg/kg dose) was “as effective”. Further, the “neuropathic pain in the Chung model” value with Chung rats is recorded as “reduced neuropathic pain”.
QEQLERALNSS [compound 37]: in assay [1], the EC50 is 100 to 200 µM.
On to 11 (SCRSRPVESSC) [compound 11], for which, in the assay with A549 cells, the “Estimated Activity” value is reported as “Inactive” and the “restoration of A549 viability” value is “did not”.
On to “8 (CSGRVSECGF; disulfide 1-8) [compound 8]”, for which, in the assay on A549 cells, the “Estimated Activity” value is given as “Inactive”.
Regarding 60 (RALN) [compound 60], in the assay with A549 cells, the “Estimated Activity” value is on record as “WEAK (some or variable restoration of cell viability at 50-100 μM)”. Besides, in the assay with HKx31 (H3N2) (mouse, in vivo, 10 mg/kg), the “BAL IL-6 activity score” value amounted to 2, the PMN activity score is reported as 2 and the “Viral titre activity score” value stood at 2.
Take `CC(C)C[C@@H]1NC(=O)[C@H](C)NC(=O)[C@H](CCCNC(=N)N)NC(=O)[C@H](CCC(=O)O)NC(=O)[C@H](CC(C)C)NC(=O)[C@H](CCC(N)=O)NC(=O)[C@H](CCC(=O)O)NC(=O)[C@H](CCC(N)=O)NC(=O)[C@@H](N)CSSC[C@@H](C(=O)O)NC(=O)[C@H](CO)NC(=O)[C@H](CO)NC(=O)[C@H](CC(N)=O)NC1=O` [compound 38] (H-CQEQLERALNSSC-OH; disulfide 1-13): the EC50 in assay [1] was in the range of 50 to 100 µM.
Turning to `CC(C)[C@@H]1NC(=O)[C@@H]2CCCN2C(=O)[C@H](CCCNC(=N)N)NC(=O)[C@H](CO)NC(=O)[C@H](CCCNC(=N)N)NC(=O)[C@@H](N)CSSC[C@@H](C(=O)N[C@@H](CO)C(=O)O)NC(=O)[C@H](CO)NC(=O)[C@H](CO)NC(=O)[C@H](CCC(=O)O)NC1=O` [compound 14] (H-CRSRPVESSCS-OH; disulfide 1-10; N-terminus and C-terminus assumed), in the assay on A549 cells, the “Estimated Activity” value is reported as “STRONG (clear dose-dependent restoration of cell viability from 1-5 μM upwards)”. Further, the EC50 in assay [1] was around 100 µM.
`CC(C)C[C@@H]1NC(=O)[C@H](C)NC(=O)[C@H](CCCNC(=N)N)NC(=O)[C@@H](N)CSSC[C@@H](C(=O)O)NC(=O)[C@H](CO)NC(=O)[C@H](CO)NC(=O)[C@H](CC(N)=O)NC1=O` [compound 40] (H-CRALNSSC-OH; disulfide 1-8): in assay [1], the EC50 fell in the range of 50 to 100 µM.
In the case of 63 (ALNSS) [compound 63], the “Estimated Activity” value in the assay with A549 cells was “MODERATE (moderate dose-dependent restoration of cell viability at >25 μM)”. Besides, the “Viral titre activity score” value in the assay with HKx31 (H3N2) (single 10 mg/kg dose, day 3, relative to SEQ ID NO:38) is 0.
In the case of 42 (KALPRS) [compound 42], in the assay with A549 cells, the “Estimated Activity” value is recorded as “STRONG (clear dose-dependent restoration of cell viability from 1-5 μM upwards)” and the “restoration of A549 viability” value was “partially restore A549 viability”. Also, the “IL-6 levels in the BAL fluid” value in the assay on HKx31 (H3N2) is “as effective”. Besides, in the assay on HKx31 (H3N2) (day 3), the viral titres entry was “effective”. In the assay with HKx31 (H3N2) (mouse, in vivo, 10 mg/kg), the “BAL IL-6 activity score” value turned out to be 2, the PMN activity score is listed as 2 and the “Viral titre activity score” value stood at 2. In the assay on HKx31 (H3N2) (single 10 mg/kg dose), the “reducing the PMN infiltrate … of SEQ ID NO:38” value is recorded as “as effective”.
As to `CC[C@H](C)[C@H](NC(=O)[C@H](CCCNC(=N)N)NC(=O)[C@H](CC(C)C)NC(=O)[C@@H](N)Cc1ccc(O)cc1)C(=O)N[C@H](C(=O)N[C@@H](CCC(N)=O)C(=O)N[C@H]1CSSC[C@@H](C(=O)NCC(=O)N[C@@H](Cc2ccccc2)C(=O)O)NC(=O)[C@H](CO)NC(=O)CNC(=O)[C@H](CCC(=O)O)NC(=O)[C@H](C(C)C)NC(=O)[C@H](CO)NC(=O)[C@H](CCCNC(=N)N)NC1=O)C(C)C` [compound 1] (H-YLRIVQCRSVEGSCGF-OH; disulfide 7-14), the EC50 in assay [1] lay in the range of 50 to 100 µM.
With RALNSS [compound 39], in assay [1], the EC50 is above 200 µM.
Turning to “10 (SCRSRPVESSC; disulfide 2-11) [compound 10]”, in the assay on A549 cells, the “Estimated Activity” value is reported as “STRONG (clear dose-dependent restoration of cell viability from 1-5 μM upwards)” and the “restoration of A549 viability” value is on record as “restore A549 viability”. The “neuropathic pain in the Chung model” value with Chung rats is “reduced neuropathic pain”.
